The values below are quoted from earlier work in patent US11617735B2, “Purified forms of rofecoxib, methods of manufacture and use” (Tremeau Pharmaceuticals, Inc., priority 2018, dated 2023).

The data set deals with mice. As to conditions: dose levels up to 60 mg/kg; cited from earlier work.

In the case of `CS(=O)(=O)c1ccc(C2=C(c3ccccc3)C(=O)OC2)cc1` [Rofecoxib, 4-[4-(methylsulfonyl)phenyl]-3-phenyl-2(5H)-furanone], the Carcinogenicity entry is recorded as “not carcinogenic”.
